Several values for one entry are separate records, joined by “and”; a condition that tells them apart may be missing. Identical values can stand only once. Toxic doses and inconclusive results are not listed. Rule for the calls: active = survival T/C of 150% or more; inactive = T/C below 125% in these data.
Tested on: P388 leukemia ip, CD2F1 mice, survival T/C
Assay: NCI In Vivo Anticancer Drug Screen. Data for tumor model P388 Leukemia (intraperitoneal) in CD2F1 (CDF1) mice
Conditions: endpoint: median survival time, higher = longer survival
How it was run: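 Mice carrying the transplanted tumor received test compound or vehicle. Survival was recorded in each group, and the value is the treated-group measurement divided by that of the vehicle-treated control group.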

[1] = dose: 25.0 mg/kg/injection, schedule: Q01DX009 (ip), vehicle: water
[2] = dose: 50.0 mg/kg/injection, schedule: Q01DX009 (ip), vehicle: water
[3] = dose: 100.0 mg/kg/injection, schedule: Q01DX009 (ip), vehicle: water
[4] = dose: 60.0 mg/kg/injection, schedule: Q01DX005 (ip), vehicle: saline
[5] = dose: 120.0 mg/kg/injection, schedule: Q01DX005 (ip), vehicle: saline
[6] = dose: 240.0 mg/kg/injection, schedule: Q01DX005 (ip), vehicle: saline
[7] = dose: 50.0 mg/kg/injection, schedule: Q01DX005 (ip), vehicle: saline with Tween-80
[8] = dose: 100.0 mg/kg/injection, schedule: Q01DX005 (ip), vehicle: saline with Tween-80
[9] = dose: 200.0 mg/kg/injection, schedule: Q01DX005 (ip), vehicle: saline with Tween-80
[10] = dose: 60.0 mg/kg/injection, schedule: Q01DX005 (ip), vehicle: saline with Tween-80
[11] = dose: 120.0 mg/kg/injection, schedule: Q01DX005 (ip), vehicle: saline with Tween-80
[12] = dose: 240.0 mg/kg/injection, schedule: Q01DX005 (ip), vehicle: saline with Tween-80
[13] = dose: 25.0 mg/kg/injection, schedule: Q01DX009 (ip), vehicle: saline with Tween-80
[14] = dose: 50.0 mg/kg/injection, schedule: Q01DX009 (ip), vehicle: saline with Tween-80
[15] = dose: 100.0 mg/kg/injection, schedule: Q01DX009 (ip), vehicle: saline with Tween-80

Measured: T/C

CCOC(=O)NN(C(=O)OCC)C(C(C)=O)C(C)=O
inactive: dose: 60.0 mg/kg/injection, schedule: Q01DX005 (ip), vehicle: Klucel (hydroxypropylcellulose) (HPC) 104 % of control | dose: 120.0 mg/kg/injection, schedule: Q01DX005 (ip), vehicle: Klucel (hydroxypropylcellulose) (HPC) 101 % of control | dose: 240.0 mg/kg/injection, schedule: Q01DX005 (ip), vehicle: Klucel (hydroxypropylcellulose) (HPC) 98 % of control

COc1cccc(C(=O)c2ccncc2C)c1OC
inactive: dose: 12.5 mg/kg/injection, schedule: Q01DX009 (ip), vehicle: water 103 % of control | [1] 102 % of control | [2] 100 % of control | [3] 97 % of control | dose: 200.0 mg/kg/injection, schedule: Q01DX009 (ip), vehicle: water 102 % of control

CC12NCCC(CC(=O)N1)C2(C)C (stereo unspecified)
inactive: [4] 103 % of control | [5] 110 % of control | [6] 106 % of control

C=C1C(=O)OC2/C=C(\C)CC/C=C(/C)CC(OC(=O)/C(=C/CO)CO)C12 (stereo unspecified)
inactive: dose: 5.0 mg/kg/injection, schedule: Q01DX009 (ip), vehicle: Klucel (hydroxypropylcellulose) (HPC) 108 % of control and 113 % of control | dose: 10.0 mg/kg/injection, schedule: Q01DX009 (ip), vehicle: Klucel (hydroxypropylcellulose) (HPC) 106 % of control and 115 % of control (2×) | dose: 20.0 mg/kg/injection, schedule: Q01DX009 (ip), vehicle: Klucel (hydroxypropylcellulose) (HPC) 106 % of control and 117 % of control | dose: 40.0 mg/kg/injection, schedule: Q01DX009 (ip), vehicle: Klucel (hydroxypropylcellulose) (HPC) 113 % of control and 117 % of control and 89 % of control

CNc1cccnc1C1OCCO1
inactive: dose: 50.0 mg/kg/injection, schedule: Q01DX005 (ip), vehicle: Klucel (hydroxypropylcellulose) (HPC) 96 % of control | dose: 100.0 mg/kg/injection, schedule: Q01DX005 (ip), vehicle: Klucel (hydroxypropylcellulose) (HPC) 102 % of control | dose: 200.0 mg/kg/injection, schedule: Q01DX005 (ip), vehicle: Klucel (hydroxypropylcellulose) (HPC) 100 % of control

O=NN(CC1(O)OCC(O)C(O)C1O)C(Cc1ccccc1)C(=O)O (stereo unspecified)
inactive: dose: 50.0 mg/kg/injection, schedule: Q01DX005 (ip), vehicle: saline 104 % of control | dose: 100.0 mg/kg/injection, schedule: Q01DX005 (ip), vehicle: saline 103 % of control | dose: 200.0 mg/kg/injection, schedule: Q01DX005 (ip), vehicle: saline 97 % of control

COC(=O)C1(C)N=NN=C1N(C)C (stereo unspecified)
inactive: dose: 100.0 mg/kg/injection, schedule: Q04DX002 (ip), vehicle: saline 101 % of control | dose: 200.0 mg/kg/injection, schedule: Q04DX002 (ip), vehicle: saline 100 % of control | dose: 400.0 mg/kg/injection, schedule: Q04DX002 (ip), vehicle: saline 101 % of control

CC12CC3(Nc4ccccc4C3(C)O)OC1(C)c1ccccc1N2 (stereo unspecified)
inactive: [7] 95 % of control | [8] 92 % of control | [9] 92 % of control

NNC(=O)CNc1cc(Cl)cc(Cl)c1
inactive: [10] 113 % of control | [11] 97 % of control | [12] 100 % of control

BrC1C2CC/C=C\CCC12 (stereo unspecified)
inactive: [10] 100 % of control | [11] 104 % of control | [12] 104 % of control

O=c1[nH]cnc2c1ccc1[nH]ncc12
inactive: dose: 6.25 mg/kg/injection, schedule: Q01DX005 (ip), vehicle: saline with Tween-80 88 % of control | dose: 12.5 mg/kg/injection, schedule: Q01DX005 (ip), vehicle: saline with Tween-80 90 % of control | dose: 25.0 mg/kg/injection, schedule: Q01DX005 (ip), vehicle: saline with Tween-80 86 % of control | [7] 97 % of control | [8] 99 % of control

CC1C(c2ccccc2)NC(c2ccccc2)C(C)C1(O)c1ccccc1 (stereo unspecified)
inactive: [7] 107 % of control | [8] 107 % of control

COC(=O)c1nnn(-c2ccc(S(N)(=O)=O)cc2)c1C(=O)c1ccc(Cl)c(Cl)c1
inactive: [10] 109 % of control | [11] 109 % of control | [12] 94 % of control

Cc1ccc(NC(=O)CCCC(=O)C(C#N)c2ccccc2Cl)cc1C (stereo unspecified)
inactive: [10] 102 % of control | [11] 108 % of control | [12] 101 % of control

CC1(C)COCN(C2CCCCC2)C1
inactive: dose: 15.0 mg/kg/injection, schedule: Q01DX009 (ip), vehicle: saline with Tween-80 119 % of control | dose: 30.0 mg/kg/injection, schedule: Q01DX009 (ip), vehicle: saline with Tween-80 100 % of control | dose: 60.0 mg/kg/injection, schedule: Q01DX009 (ip), vehicle: saline with Tween-80 108 % of control

O=C(NO)C1NC1C(=O)NO (stereo unspecified)
inactive: [1] 96 % of control | [2] 109 % of control | dose: 100.0 mg/kg/injection, schedule: Q01DX001 (ip), vehicle: water 100 % of control | [3] 111 % of control | dose: 100.0 mg/kg/injection, schedule: Q04DX003 (ip), vehicle: water 115 % of control | dose: 200.0 mg/kg/injection, schedule: Q01DX001 (ip), vehicle: water 107 % of control | dose: 200.0 mg/kg/injection, schedule: Q04DX003 (ip), vehicle: water 112 % of control | dose: 400.0 mg/kg/injection, schedule: Q01DX001 (ip), vehicle: water 100 % of control | dose: 400.0 mg/kg/injection, schedule: Q04DX003 (ip), vehicle: water 112 % of control | dose: 600.0 mg/kg/injection, schedule: Q01DX001 (ip), vehicle: water 101 % of control

CC(=O)NCC(C)c1ccccc1 (stereo unspecified)
inactive: [13] 102 % of control

Ic1ccc(Nc2ncnc3sc4c(c23)CCCC4)cc1
inactive: [7] 111 % of control | [8] 94 % of control | [9] 92 % of control

CCCCCCCCCCCCNNC(=O)[C@@H]1[C@H](c2cc(OC)c(OC)c(OC)c2)c2cc3c(cc2[C@H](O)[C@H]1CO)OCO3
inactive: [7] 117 % of control and 124 % of control | [8] 122 % of control

CCCC[P+](CCCC)(CCCC)CC(=O)O
inactive: [13] 97 % of control | [14] 100 % of control | [15] 95 % of control

CC(=O)/C(=C\c1ccco1)C(=O)CCN(C)C
inactive: [4] 108 % of control and 109 % of control and 115 % of control | [5] 106 % of control and 118 % of control and 120 % of control | [6] 108 % of control and 115 % of control | dose: 480.0 mg/kg/injection, schedule: Q01DX005 (ip), vehicle: saline 101 % of control

CCCCCCCCCCCCCCCCCC(=O)Nc1ncc([N+](=O)[O-])s1
inactive: dose: 50.0 mg/kg/injection, schedule: Q01DX009 (ip), vehicle: Klucel (hydroxypropylcellulose) (HPC) 106 % of control | dose: 100.0 mg/kg/injection, schedule: Q01DX009 (ip), vehicle: Klucel (hydroxypropylcellulose) (HPC) 101 % of control | dose: 200.0 mg/kg/injection, schedule: Q01DX009 (ip), vehicle: Klucel (hydroxypropylcellulose) (HPC) 101 % of control

CC(=O)C(=CN(C)c1ccc([N+](=O)[O-])cc1)C(C)=O
inactive: dose: 6.25 mg/kg/injection, schedule: Q01DX009 (ip), vehicle: saline with Tween-80 111 % of control | dose: 12.5 mg/kg/injection, schedule: Q01DX009 (ip), vehicle: saline with Tween-80 92 % of control | [13] 100 % of control | dose: 100.0 mg/kg/injection, schedule: Q01DX009 (ip), vehicle: saline 91 % of control | dose: 200.0 mg/kg/injection, schedule: Q01DX009 (ip), vehicle: saline 91 % of control

COc1ccc(B2OCCO2)cc1
inactive: [7] 100 % of control | [8] 97 % of control | [9] 101 % of control

O=C(O)CCCCCOC(C[N+](=O)[O-])C(Cl)(Cl)Cl (stereo unspecified)
inactive: [14] 97 % of control | [15] 102 % of control | dose: 200.0 mg/kg/injection, schedule: Q01DX009 (ip), vehicle: saline with Tween-80 111 % of control
